Measured values taken from patent US20260042764A1, “COMPOSITIONS AND METHODS FOR INHIBITION OF KRAS” (TheRas, Inc., priority 2022, published 2026).

Experiments:
[1] = target: T1, Avi-KRAS G12D (1-169) GppNHp/RAF1 RBD-3xFLAG (52-151) (Homo sapiens, UniProt P01116, G12D); test: Raf1-KRAS G12D-GppNHP disruption HTRF assay (Biological Example 1); format: binding
T1 construct: Avi-KRAS G12D (1-169)
Method in brief: (§1)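 Protein mix, 1 h RT, 700 rpm; reagent mix, 1 h RT, 700 rpm; HTRF read. Buffer Tris pH 7.5/NaCl/MgCl2/BSA/Tween, 10% DMSO. Output % activity, DMSO = 100%.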

[2] = target: T2, Avi-KRAS G12V (1-169) GppNHp/RAF1 RBD-3xFLAG (52-151) (Homo sapiens, UniProt P01116, G12V); test: Raf1-KRAS G12V-GppNHP disruption HTRF assay (Biological Example 1); format: binding
T2 construct: Avi-KRAS G12V (1-169)
T2 sequence (P01116 1-169 isoform P01116-2 G12V): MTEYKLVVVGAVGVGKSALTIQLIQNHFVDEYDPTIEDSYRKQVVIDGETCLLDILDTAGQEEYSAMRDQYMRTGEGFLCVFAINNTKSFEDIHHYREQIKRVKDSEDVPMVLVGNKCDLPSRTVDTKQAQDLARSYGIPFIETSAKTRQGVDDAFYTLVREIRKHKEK
Method in brief: as §1

[3] = target: T3, Avi-KRAS G12R (1-169) GppNHp/RAF1 RBD-3xFLAG (52-151) (Homo sapiens, UniProt P01116, G12R); test: Raf1-KRAS G12R-GppNHP disruption HTRF assay (Biological Example 1); format: binding
T3 construct: Avi-KRAS G12R (1-169)
T3 sequence (P01116 1-169 isoform P01116-2 G12R): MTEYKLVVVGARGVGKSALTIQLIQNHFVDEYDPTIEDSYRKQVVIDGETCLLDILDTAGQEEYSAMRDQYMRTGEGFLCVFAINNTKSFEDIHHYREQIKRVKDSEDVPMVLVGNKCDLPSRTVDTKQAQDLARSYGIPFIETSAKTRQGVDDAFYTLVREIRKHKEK
Method in brief: as §1

[4] = tested on: GP2d cells (KRAS G12D); test: Cell-based pERK HTRF assay in GP2d cell (Biological Example 2); details: GP2d (KRAS G12D) cells, pERK HTRF
Method in brief: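 Phospho-ERK is measured by HTRF following a 60 min compound exposure at 0.25% DMSO, with a 9-point half-log curve topping at 1 μM or 100 nM.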

[5] = tested on: SW620 cells (KRAS G12V); test: Cell-based pERK HTRF assay in SW620 cell (Biological Example 4); details: pERK HTRF
Method in brief: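 SW620 seeded in RPMI/10% FBS, next day dosed 4 h (top 1 μM, half-log, 9 pts, 0.25% DMSO). Lysed, pERK by d2/Eu cryptate HTRF, 4–24 h RT, 615 nm read.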

[6] = target: T4, Avi-KRAS WT (1-169) GppNHp/RAF1 RBD-3xFLAG (52-151) (Homo sapiens, UniProt P01116); test: Raf1-KRAS WT-GppNHP disruption HTRF assay (Biological Example 1); format: binding
T4 construct: Avi-KRAS WT (1-169)
T4 sequence (P01116 1-169 isoform P01116-2): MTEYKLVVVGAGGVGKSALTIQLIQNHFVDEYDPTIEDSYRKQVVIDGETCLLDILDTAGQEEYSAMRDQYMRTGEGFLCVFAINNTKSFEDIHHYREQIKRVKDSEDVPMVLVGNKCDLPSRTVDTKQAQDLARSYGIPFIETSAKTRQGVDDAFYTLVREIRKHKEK
Method in brief: as §1

[7] = Homo sapiens, SW-620, SW620 (KRAS G12V) cells
[8] = KRAS G12D, GppNHp-loaded, class symbols
[9] = KRAS G12V, GppNHp-loaded, class symbols
[10] = KRAS G12R, GppNHp-loaded, class symbols
[11] = Homo sapiens, SW-620, SW620 (KRAS G12V) cells, class symbols
[12] = KRAS WT, GppNHp-loaded, class symbols
[13] = KRAS G12D, GppNHp-loaded, Table 11
[14] = KRAS G12V, GppNHp-loaded, Table 11
[15] = KRAS G12R, GppNHp-loaded, Table 11
[16] = KRAS WT, GppNHp-loaded, Table 11

T1 sequence (P01116 1-169 isoform P01116-2 G12D): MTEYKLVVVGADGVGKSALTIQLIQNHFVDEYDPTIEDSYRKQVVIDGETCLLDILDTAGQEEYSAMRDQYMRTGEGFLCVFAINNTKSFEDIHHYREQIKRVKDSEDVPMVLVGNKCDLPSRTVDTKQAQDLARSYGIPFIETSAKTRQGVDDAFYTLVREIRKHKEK

| SMILES | IC50 ([1]; KRAS G12D-GppNHp/RAF1 RBD HTRF) [nM] | IC50 ([2]; KRAS G12V-GppNHp/RAF1 RBD HTRF) [nM] | IC50 ([3]; KRAS G12R-GppNHp/RAF1 RBD HTRF) [nM] | IC50 [5, 7] [nM] | IC50 ([6]; KRAS WT-GppNHp/RAF1 RBD HTRF) [nM] | IC50 ([4]; GP2d) [nM] | further results |
| --- | --- | --- | --- | --- | --- | --- | --- |
| C[C@@H]1[C@H](N(C)c2nc(OC[C@@]34CCCN3C[C@H](F)C4)nc3c(F)c(-c4ccc(F)c5sc(N)c(C#N)c45)c(Cl)cc23)CCN1C(=O)CF [Compound 460] | 100 to 1000 | 100 to 1000 | 100 to 1000 | < 100 | 100 to 1000 | – | IC50 [4]: < 100 nM |
| CCN(CC)C(=O)N1CCC(N(CC)c2nc(OCC34CCCN3CC(F)C4)nc3c(F)c(-c4ccc(F)c5sc(N)c(C#N)c45)c(C(F)(F)F)cc23)C1 (stereo not drawn) [Compound 572] | – | – | – | – | – | – | IC50 [1, 8]: < 100 nM; IC50 [2, 9]: 100 to 1000 nM; IC50 [3, 10]: < 100 nM; IC50 ([4]; GP2d, class symbols): < 100 nM; IC50 [5, 11]: < 100 nM; IC50 [6, 12]: < 100 nM |
| CCN(c1nc(OC[C@@]23CCCN2C[C@H](F)C3)nc2c(F)c(-c3ccc(F)c4sc(N)c(C#N)c34)c(C(F)(F)F)cc12)[C@H]1CCN(C(=O)[C@H]2CC23CC3)C1 (atropisomer, axis not shown) [Compound 772] | – | – | – | – | – | – | IC50 [1, 8]: < 100 nM; IC50 [2, 9]: < 100 nM; IC50 [3, 10]: < 100 nM; IC50 ([4]; GP2d, class symbols): < 100 nM; IC50 [5, 11]: < 100 nM; IC50 [6, 12]: < 100 nM |
| CCN(c1nc(OC[C@@]23CCCN2C[C@H](F)C3)nc2c(F)c(-c3ccc(F)c4sc(N)c(C#N)c34)c(C(F)(F)F)cc12)[C@@H]1C[C@H](C)N(C(=O)OC)C1 (atropisomer, axis not shown) [Compound 544] | 100 to 1000 | 100 to 1000 | 100 to 1000 | < 100 | 100 to 1000 | < 100 | – |
| C[C@@H]1[C@H](N(C)c2nc(OC[C@@]34CCCN3C[C@H](F)C4)nc3c(F)c(-c4ccc(F)c5sc(N)c(C#N)c45)c(C(F)(F)F)cc23)CCN1C(=O)C1(C)CC1 [Compound 313] | 100 to 1000 | 100 to 1000 | 100 to 1000 | < 100 | 100 to 1000 | < 100 | – |
| CC(=O)N1C[C@@H]2OCCN(c3nc(OC[C@@]45CCCN4C[C@H](F)C5)nc4c(F)c(-c5ccc(F)c6sc(N)c(C#N)c56)c(C(F)(F)F)cc34)[C@@H]2C1 [Compound 481] | 100 to 1000 | 1000 to 10000 | 100 to 1000 | 100 to 1000 | 100 to 1000 | < 100 | – |
| N#Cc1c(N)sc2c(F)ccc(-c3c(C(F)(F)F)cc4c(N5CC6OCC5C6F)nc(OC[C@@]56CCCN5C[C@H](F)C6)nc4c3F)c12 (stereo partly drawn) [Compound 531] | 100 to 1000 | 100 to 1000 | 100 to 1000 | < 100 | 100 to 1000 | < 100 | – |
| CC(=O)N1C[C@@H](N(C)c2nc(OC[C@@]34CCCN3C[C@H](F)C4)nc3c(F)c(-c4ccc(F)c5sc(N)c(C#N)c45)c(C(F)(F)F)cc23)[C@@H](F)C1 [Compound 187] | – | – | – | < 100 | – | < 100 | IC50 [1, 13]: < 100 nM; IC50 [2, 14]: 100 to 1000 nM; IC50 [3, 15]: 100 to 1000 nM; IC50 [6, 16]: 100 to 1000 nM |
| C[C@H]1CC[C@@H](O)CN1c1nc(OC[C@@]23CCCN2C[C@H](F)C3)nc2c(F)c(-c3ccc(F)c4sc(N)c(C#N)c34)c(C(F)(F)F)cc12 [Compound 317] | 100 to 1000 | 1000 to 10000 | 100 to 1000 | < 100 | 100 to 1000 | < 100 | – |
| CC(C)C(=O)N1CC[C@](C)(N(C)c2nc(OC[C@@]34CCCN3C[C@H](F)C4)nc3c(F)c(-c4ccc(F)c5sc(N)c(C#N)c45)c(C(F)(F)F)cc23)C1 [Compound 499] | 100 to 1000 | 1000 to 10000 | 1000 to 10000 | < 100 | 1000 to 10000 | < 100 | – |
| C[C@@H]1[C@H](N(C)c2nc(OC[C@@]34CCCN3C[C@H](F)C4)nc3c(F)c(-c4ccc(F)c5sc(N)c(C#N)c45)c(Cl)cc23)CCN1C(=O)C(F)F [Compound 408] | 100 to 1000 | 1000 to 10000 | 1000 to 10000 | 100 to 1000 | 100 to 1000 | < 100 | – |
| N#Cc1c(N)sc2c(F)ccc(-c3c(C(F)(F)F)cc4c(N5CCn6nccc6C5)nc(OC[C@@]56CCCN5C[C@H](F)C6)nc4c3F)c12 [Compound 233] | – | – | – | – | – | – | IC50 [1, 13]: 100 to 1000 nM; IC50 [2, 14]: 1000 to 10000 nM; IC50 [3, 15]: 100 to 1000 nM; IC50 [4]: < 100 nM; IC50 ([5]; SW620 (KRAS G12V) cells): < 100 nM; IC50 [6, 16]: 100 to 1000 nM |
